Measured values: patent US6004952A, “Micacocidin derivatives” (Shinogi & Co., Ltd., priority 1996, dated 1999)
Converted amounts (≈) assume the structure as drawn. Where two headings read alike, the source gives them in different places.

Key:
M. gallisepticum [1] = assay: In vivo evaluation test for M. gallisepticum in chickens (air-sac lesions); conditions: 6 chickens tested
Candida albicans = assay: Antifungal activity, micro-liquid dilution method, Candida albicans; format: cell-based, Candida albicans strain Ca-15; conditions: Candida albicans, 24 h, 30° C., read-out: Antifungal activities: IC50
Experimental: (§1) Antifungal activities of the compounds to Candida albicans (strain Ca-15) and Asperilhm fumigatus (strain MA), representative pathogenic fungi, were determined by micro-liquid dilution method using 96-well microplates. A fungal suspension stored under freezing was adjusted to 1×1 O^5 CFU/ml by medium, of which 100 μl portions were charged into each well. The compound of the present invention was dissolved in dimethylsulfoxide (DMSO). Using the resultant solution, 2-fold dilution series were prepared together with the fungal suspension charged into the wells. YNB medium and RPMI medium were used. After cultured for 24 hours at 30° C., evaluation was performed by detecting the turbidity (wave length: 595 nm) using microplate reader.

Aspergillus fumigatus = assay: Antifungal activity, micro-liquid dilution method, Aspergillus fumigatus; format: cell-based, Aspergillus fumigatus strain MA; conditions: Aspergillus fumigatus, 24 h, 30° C., read-out: Antifungal activities: IC50
Experimental: as §1

Eimeria tenella = assay: Growth inhibition activities to avian coccidium in primary chicken kidney cells; format: cell-based; conditions: Eimeria tenella; more than 80% of suppression rate regarded as effective; read-out: Effective dose (growth inhibition)
Experimental: The kidneys of SPF new born chicken was sterilely removed, which was treated with trypsin and the resultant primary kidney cells were cultured in 24-well plate. Monolayer culture after cultured for 3 days was treated simultaneously with compounds adjusted to predetermined concentration and sporozoit obtained by artificial excystation, which was cultured a 40° C. Premature and mature schizonts were observed under microscope, and the growth inhibition activities (suppression rate) for each treatment group were calculated at a proportion of the number of schizonts for the sporozoit-inoculated, compound-untreated control group (100%).

[2] = Cytotoxicity to primary chicken kidney culture cells; format: cell-based; conditions: primary chicken kidney cells
mice spleen cells [3] = assay: Suppression of reaction of mice spleen cells to Concanavalin A, in vitro (MTT); format: cell-based, BDF1 mice
Experimental: (§2) To each well of 96 well microtiter plate were added 5×10^5 spleen cells of BDF1 mice suspended in 0.1 ml of RPMI 1640 medium supplemented with 10% bovine fetus serum (supplemented with 2 mM sodium hydrogen carbonate, 50 Units/ml of penicillin, 50 μg/ml of streptomycin, and 5×10^-5 M of 2-mercaptoethanol), and then, 5 μg/ml of Concanavalin A (Con A) or 10 μg/ml of lypopolysaccaride (LPS) and various concentrations of test substance, of which final volume was adjusted to 0.2 ml. Test substances were dissolved in dimethylsulfoxide (DMSO), diluted with RPMI 1640 stated above, and added to the wells so that final concentration of the substances becomes less than 10000 ng/ml. The 96-well microtiter plates were cultured at 37° C. for 3 days in an incubator which was maintained at the humidity of 100%, 5% of carbon dioxide and 95% of air. After cultivation is completed, […] of 6 mg/ml solution of MTT {3-(4,5-dimethylthiazol-2yl)-2,5 diphenyltetrazoliumbromide} (Sigma) is added to each well, which is cultured at 37° C. for […] under the same conditions. After cultivation is completed, formazan formed is dissolved by adding 50 μl of a solution of 20% dodecyl sodium sulfonate (SDS) in 0.02N hydrochloric acid and kept standing at 37° C. for 24 hours. The absorbance (OD) of the formazan which was produced in proportion to the number of alive cells, was determined by using immunoreader equipped with 570 nm filter (see The Journal of Immunological Methods, Vol.65, 55-63, 1983).
(§3) Cell growth inhibition rate and IC50 value were calculated according to the correlation between the concentration and the absorbance for each substance.

mice spleen cells [4] = assay: Suppression of reaction of mice spleen cells to lypopolysaccaride (LPS), in vitro (MTT); format: cell-based, BDF1 mice
Experimental: as §2, §3

Mycoplasma = assay: MIC to Mycoplasmas (summary in words); format: cell-based
M. pneumoniae = assay: MIC, liquid dilution method, Mycoplasma pneumoniae; conditions: Mycoplasmoides pneumoniae
M. gallisepticum [5] = assay: MIC, liquid dilution method, Mycoplasma gallisepticum; conditions: Mycoplasmoides gallisepticum
M. hyopneumoniae = assay: MIC, liquid dilution method, Mycoplasma hyopneumoniae; conditions: Mesomycoplasma hyopneumoniae

Row | Structure (SMILES) | minimal effective concentration (Eimeria tenella) [µg/mL] | MCC [2] [µg/mL] | MIC (M. pneumoniae) [µg/mL] | MIC (M. gallisepticum [5]) [µg/mL] | MIC (M. hyopneumoniae) [µg/mL] | other results
1 | CN(C)[C@@H]1C(O)=C(C(N)=O)C(=O)[C@@]2(O)C(O)=C3C(=O)c4c(O)ccc(Cl)c4[C@@](C)(O)[C@H]3C[C@@H]12 [CTC, chlortetracycline, reference compound] | – | – | – | – | – | air-sac lesions (the number of chickens): (+) slight (M. gallisepticum [1]; 50 mg/kg × 1, orally): 0; air-sac lesions (the number of chickens): (++-+++) moderate to severe (M. gallisepticum [1]; 50 mg/kg × 1, orally): 3; air-sac lesions (the number of chickens): (-) non (M. gallisepticum [1]; 50 mg/kg × 1, orally): 3; number of chickens having lesions (M. gallisepticum [1]; 50 mg/kg × 1, orally): 3; air-sac lesions (the number of chickens): (+) slight (M. gallisepticum [1]; 100 mg/kg × 1, orally): 0; air-sac lesions (the number of chickens): (++-+++) moderate to severe (M. gallisepticum [1]; 100 mg/kg × 1, orally): 1; air-sac lesions (the number of chickens): (-) non (M. gallisepticum [1]; 100 mg/kg × 1, orally): 5; number of chickens having lesions (M. gallisepticum [1]; 100 mg/kg × 1, orally): 1; air-sac lesions (the number of chickens): (+) slight (M. gallisepticum [1]; 200 mg × 1, orally): 0; air-sac lesions (the number of chickens): (++-+++) moderate to severe (M. gallisepticum [1]; 200 mg × 1, orally): 1; air-sac lesions (the number of chickens): (-) non (M. gallisepticum [1]; 200 mg × 1, orally): 5; number of chickens having lesions (M. gallisepticum [1]; 200 mg × 1, orally): 1
2 | CCCCCc1cccc(O)c1C1=NC(C2SCC(C(O)C(C)(C)C3=NC(C)(C(=O)O)CS3)N2C)CS1 (centres unmarked) [Compound 2] | 2.5 | 10 | – | – | – | IC50 (Candida albicans; RPMI medium): 1.6 µg/mL (≈ 2.83 µM); IC50 (Candida albicans; YNB medium): 6.3 µg/mL (≈ 11.1 µM); IC50 (Aspergillus fumigatus; RPMI medium): 0.2 µg/mL (≈ 0.353 µM); IC50 (Aspergillus fumigatus; YNB medium): 3.2 µg/mL (≈ 5.66 µM)
3 | CCCCCc1cccc(O)c1C1=NC(C2SCC(C(OC(C)=O)C(C)(C)C3=NC(C)(C(=O)O)CS3)N2C)CS1 (centres unmarked) [Compound 3] | 10 | > 10 | – | – | – | –
4 | CCCCCc1cccc(O)c1C1=NC(C2SCC(C(OCc3ccc(Cl)cc3)C(C)(C)C3=NC(C)(C(=O)O)CS3)N2C)CS1 (centres unmarked) [Compound 6] | – | – | – | – | – | suppression of the reaction to Con A of spleen cells (mice spleen cells [3]): suppressed; inhibition at 0.156 µg/mL (mice spleen cells [3]; Mus musculus, 72 h, Con A, 156 ng/ml, read-out: Suppression rate): 0%; inhibition at 0.312 µg/mL (mice spleen cells [3]; Mus musculus, 72 h, Con A, 312 ng/ml, read-out: Suppression rate): 16.5%; inhibition at 0.625 µg/mL (mice spleen cells [3]; Mus musculus, 72 h, Con A, 625 ng/ml, read-out: Suppression rate): 87.4%; inhibition at 1.25 µg/mL (mice spleen cells [3]; Mus musculus, 72 h, Con A, 1250 ng/ml, read-out: Suppression rate): 98.6%; inhibition at 2.5 µg/mL (mice spleen cells [3]; Mus musculus, 72 h, Con A, 2500 ng/ml, read-out: Suppression rate): 102%; IC50 (mice spleen cells [3]; Mus musculus, Con A): 0.399 µg/mL (≈ 0.578 µM); suppression of the reaction to LPS of spleen cells (mice spleen cells [4]): suppressed; inhibition at 0.156 µg/mL (mice spleen cells [4]; Mus musculus, 72 h, LPS, 156 ng/ml, read-out: Suppression rate): 17.7%; inhibition at 0.312 µg/mL (mice spleen cells [4]; Mus musculus, 72 h, LPS, 312 ng/ml, read-out: Suppression rate): 24.4%; inhibition at 0.625 µg/mL (mice spleen cells [4]; Mus musculus, 72 h, LPS, 625 ng/ml, read-out: Suppression rate): 84.3%; inhibition at 1.25 µg/mL (mice spleen cells [4]; Mus musculus, 72 h, LPS, 1250 ng/ml, read-out: Suppression rate): 98%; inhibition at 2.5 µg/mL (mice spleen cells [4]; Mus musculus, 72 h, LPS, 2500 ng/ml, read-out: Suppression rate): 105%; IC50 (mice spleen cells [4]; Mus musculus, LPS): 0.368 µg/mL (≈ 0.533 µM)
5 | CCCCCc1cccc(OC(C)=O)c1C1=NC(C2SCC(C(OC(C)=O)C(C)(C)C3=NC(C)(C(=O)OC)CS3)N2C)CS1 (centres unmarked) [Compound 10] | > 10 | > 10 | – | – | – | –
6 | CCCCCc1cccc(OCc2ccc(Cl)cc2)c1C1=NC(C2SCC(C(O)C(C)(C)C3=NC(C)(C(=O)OC)CS3)N2C)CS1 (centres unmarked) [Compound 11] | 10 | > 10 | – | – | – | –
7 | CCCCCc1cccc(O)c1C1=NC(C2SCC(C(O)C(C)(C)C3=NC(C)(C(=O)OC)CS3)N2C)CS1 (centres unmarked) [Compound 12] | 0.625 | > 10 | ≤ 0.00625 | 0.2 (≈ 0.345 µM) | ≤ 0.025 | MICs to Mycoplasmas (Mycoplasma): low MICs
8 | CCCCCc1cccc(O)c1C1=NC(C2SCC(C(OCc3ccc(Cl)cc3)C(C)(C)C3=NC(C)(C(=O)OC)CS3)N2C)CS1 (centres unmarked) [Compound 13] | > 10 | > 10 | – | – | – | –
9 | CCCCCc1cccc(OCc2ccc(Cl)cc2)c1C1=NC(C2SCC(C(OCc3ccc(Cl)cc3)C(C)(C)C3=NC(C)(C(=O)OCc4ccc(Cl)cc4)CS3)N2C)CS1 (centres unmarked) [Compound 21] | > 10 | > 10 | – | – | – | –
10 | CCCCCc1cccc(O)c1C1=NC(C2SCC(C(O)C(C)(C)C3=NC(C)(C(=O)OCc4ccc(Cl)cc4)CS3)N2C)CS1 (centres unmarked) [Compound 22] | 2.5 | > 10 | 0.39 (≈ 0.565 µM) | > 3.13 | 0.1 (≈ 0.145 µM) | –
11 | CCCCCc1cccc(O)c1C1=NC(C2SCC(C(O)C(C)(C)C3=NC(C)(C(=O)N(C)O)CS3)N2C)CS1 (centres unmarked) [Compound 25] | – | – | – | – | – | IC50 (Candida albicans; RPMI medium): 6.3 µg/mL (≈ 10.6 µM); IC50 (Candida albicans; YNB medium): 50 µg/mL (≈ 84.1 µM); IC50 (Aspergillus fumigatus; RPMI medium): 0.2 µg/mL (≈ 0.336 µM); IC50 (Aspergillus fumigatus; YNB medium): 50 µg/mL (≈ 84.1 µM)
12 | CCCCCc1cccc(O)c1C1=NC(C2SCC(C(O)C(C)(C)C3=NC(C)(C(=O)NC(C)C(=O)OC)CS3)N2C)CS1 (centres unmarked) [Compound 28] | 10 | > 10 | 0.05 (≈ 0.0768 µM) | 0.39 (≈ 0.599 µM) | 0.1 (≈ 0.154 µM) | MICs to Mycoplasmas (Mycoplasma): low MICs
13 | CCCCCc1cccc(O)c1C1=NC(C2SCC(C(O)C(C)(C)C3=NC(C)(C(=O)NCCO)CS3)N2C)CS1 (centres unmarked) [Compound 30] | 2.5 | > 10 | 0.2 (≈ 0.328 µM) | 0.78 (≈ 1.28 µM) | 0.39 (≈ 0.641 µM) | –
14 | CCCCCc1cccc(O)c1C1=NC(C2SCC(C(O)C(C)(C)C3=NC(C)(C(N)=O)CS3)N2C)CS1 (centres unmarked) [Compound 31] | – | 10 | 0.2 (≈ 0.354 µM) | 0.39 (≈ 0.69 µM) | 0.2 (≈ 0.354 µM) | –
15 | CCCCCc1cccc(O)c1C1=NC(C2SCC(C(O)C(C)(C)C3=NC(C)(CO)CS3)N2C)CS1 (centres unmarked) [Compound 32] | 10 | > 10 | 0.025 (≈ 0.0453 µM) | 0.39 (≈ 0.707 µM) | 0.05 (≈ 0.0906 µM) | –
